Patent publication US20170000405A1, “RAPID, REPRODUCIBLE, NON-INVASIVE PREDICTOR OF CADAVERIC DONOR LIVER GRAFT UTILIZATION” (THE REGENTS OF THE UNIVERSITY OF CALIFORNIA, priority 2014, published 2017)

Conditions: human, in vivo
Experimental: To evaluate the method for rapid, non-invasive, quantitative assessment of liver function, performed before liver graft procurement, a LiMON liver function monitor, manufactured by Pulsion Medical Systems, Munich, Germany, was used for the assessment of brain-dead donor livers by measuring Indocyanine Green Plasma Disappearance Rates (ICG-PDRs). […] The LiMON monitor 102 measures Indocyanine Green (ICG) 104 clearance from the blood, after the ICG is administered intravenously to the donor, by non-invasive pulse-densitometry using, for example, a finger probe 106.
Injected ICG 202 is detected by a sensor 204 on the finger 206 from fractional pulsatile changes 208, 210 in optical absorption using LED lights 212. The optical peak absorption of 805 nm as shown in FIG. 2B and 905 nm as shown in FIG. 2C allows continuous measurements of ICG-PDR. The clearance of the injected dye from the blood (mg/l) can be calculated as:
The ICG-PDR is calculated as the ICG clearance (CICG) over time, as shown in the graph in FIG. 3.
Consecutive adult brain-dead donors in the local donation service area, whose livers were offered to the study center, were assessed for liver function using the methods of the current disclosure, after permission was acquired. Immediately prior to organ procurement, indocyanine green elimination tests were conducted using the non-invasive liver function monitoring system shown in FIG. 1 and FIG. 2A. Each patient received an ICG finger clip connected to a liver function monitor. A dose of 0.25 mg/kg ICG (ICG—PULSION, Pulsion Medical Systems) was given through a central vein as a bolus and immediately flushed with 10 mL of normal saline. All of the ICG-PDR measurements were acquired using the LiMON liver function monitor manufactured by Pulsion Medical Systems, Munich, Germany.

In the case of `CC1(C)C(/C=C/C=C/C=C/C=C2\N(CCCCS(=O)(=O)O)c3ccc4ccccc4c3C2(C)C)=[N+](CCCCS(=O)(=O)[O-])c2ccc3ccccc3c21` [ICG, Indocyanine Green], the “IGG-PDR, Mean (SD), Accepted” value is reported as 24.1 (6.7) %/min, the “IGG-PDR, Mean (SD), Rejected” value is reported as 17.9 (4.7) %/min and the “PDR, sample PULSION-LiMON ICG trace of a non-acceptable liver” value is reported as 12.9 % clearance per minute. For the same compound, the “PDR, sample PULSION-LiMON ICG trace of an accepted liver” value was 21.5 % clearance per minute.
